The assay concerns the target TARP γ8 dependent AMPA receptor (GluA1o-g8 fusion channel) (Homo sapiens (Human), UniProt P42261+Q8WXS5). Nature of the assay: Calcium flux assay (FLIPR), HEK293 cells expressing GRIA1o-CACNG8 fusion. The note with it: inhibition of calcium flux after 15 μM glutamate, read-out: GluR1-γ8 pIC50 (converted). The format is cell-based. An excerpt:
This assay was used to test compounds for their ability to inhibit TARP γ8 dependent AMPA receptor activity.
An in vitro assay was used to determine the potency of test compounds as inhibitors of the glutamate response of the channel formed by GluA1o-g8. To ensure a 1:1 stoichiometry of GluA1o and g8 subunits in the expressed channel, a fusion of the cDNAs for GRIA1o and CACNG8 was used. […] A clonal cell line in HEK293 cells stably expressing this construct, with a geneticin selection marker, was generated for use in this assay. Cell expressing the GRIAlo-CACNG8 fusion construct were grown in a monolayer in 96- or 384-well microtiter plates. […] The cells were then loaded with a calcium-sensitive dye (Calcium-5 or Calcium-6, Molecular Devices) and the test compounds at a range of concentrations.
The fluorescence in each well was normalized to the fluorescence of negative and positive control wells. […] The responses to glutamate as functions of the test compound concentrations were fitted to a four-parameter logistic function. The fitted parameter corresponding to the midpoint was taken to be the potency of inhibition of the compound.
A general note: Calcium flux is commonly read through the fluorescence of an indicator in the cells.

Chain of TARP γ8 dependent AMPA receptor (GluA1o-g8 fusion channel) (P42261 other isoform, or with tags, fused parts or gaps): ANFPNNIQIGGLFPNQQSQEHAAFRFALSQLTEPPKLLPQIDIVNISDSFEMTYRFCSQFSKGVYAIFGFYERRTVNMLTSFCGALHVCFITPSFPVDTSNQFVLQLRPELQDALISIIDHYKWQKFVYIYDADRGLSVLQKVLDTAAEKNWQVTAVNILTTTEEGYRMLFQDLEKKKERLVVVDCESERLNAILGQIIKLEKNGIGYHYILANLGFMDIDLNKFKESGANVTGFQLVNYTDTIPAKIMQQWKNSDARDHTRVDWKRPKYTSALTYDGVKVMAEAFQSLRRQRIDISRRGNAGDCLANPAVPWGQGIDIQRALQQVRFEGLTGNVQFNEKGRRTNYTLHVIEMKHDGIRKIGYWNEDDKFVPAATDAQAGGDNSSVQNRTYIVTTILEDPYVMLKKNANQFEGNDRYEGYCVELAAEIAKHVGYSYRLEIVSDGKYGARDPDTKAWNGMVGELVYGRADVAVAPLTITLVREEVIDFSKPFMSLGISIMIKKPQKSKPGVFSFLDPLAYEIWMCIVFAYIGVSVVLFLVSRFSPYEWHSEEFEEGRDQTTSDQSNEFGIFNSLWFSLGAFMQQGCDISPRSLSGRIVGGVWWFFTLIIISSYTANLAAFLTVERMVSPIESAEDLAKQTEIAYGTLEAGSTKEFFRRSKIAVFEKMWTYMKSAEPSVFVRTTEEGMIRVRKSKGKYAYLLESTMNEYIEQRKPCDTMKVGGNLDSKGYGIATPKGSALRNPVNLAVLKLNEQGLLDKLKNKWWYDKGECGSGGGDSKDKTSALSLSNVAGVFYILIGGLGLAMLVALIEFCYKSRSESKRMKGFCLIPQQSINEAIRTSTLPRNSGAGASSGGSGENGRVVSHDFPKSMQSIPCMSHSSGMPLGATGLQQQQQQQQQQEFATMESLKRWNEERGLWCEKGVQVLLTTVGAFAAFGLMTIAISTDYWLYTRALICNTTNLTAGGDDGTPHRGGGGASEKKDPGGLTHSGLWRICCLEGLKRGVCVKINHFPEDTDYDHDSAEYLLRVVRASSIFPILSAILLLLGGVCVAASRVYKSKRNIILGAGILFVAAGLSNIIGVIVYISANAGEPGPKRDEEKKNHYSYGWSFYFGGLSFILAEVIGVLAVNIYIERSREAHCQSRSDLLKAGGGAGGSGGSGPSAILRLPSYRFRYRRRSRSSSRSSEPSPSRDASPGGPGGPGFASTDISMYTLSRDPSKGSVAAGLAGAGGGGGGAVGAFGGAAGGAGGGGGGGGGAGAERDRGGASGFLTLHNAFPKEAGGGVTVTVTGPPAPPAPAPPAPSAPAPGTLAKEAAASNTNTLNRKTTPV

In the case of `O=c1[nH]c2ccc(-c3c(F)cccc3F)cc2[nH]1` [Example 52, 5-(2,6-Difluorophenyl)-1,3-dihydrobenzimidazol-2-one], the IC50 was 1000 nM.

In the case of `Cc1cccc(-c2ccccc2)c1-c1ccc2[nH]c(=O)[nH]c2c1` [Example 179, 5-(2-Methyl-6-phenyl-phenyl)-1,3-dihydrobenzimidazol-2-one], the IC50 is 63.1 nM.

Turning to `N#CCc1cccc(-c2ccccc2F)c1-c1ccc2[nH]c(=O)[nH]c2c1` [Example 136, 2-[3-(2-Fluorophenyl)-2-(2-oxo-1,3-dihydrobenzimidazol-5-yl)phenyl]acetonitrile], the IC50 is 158 nM.

Consider `O=c1[nH]c2ccc(-c3c(Cl)cccc3-c3cncc(C(F)(F)F)c3)cc2[nH]1` [Example 169, 5-[2-Chloro-6-[5-(trifluoromethyl)-3-pyridyl]phenyl]-1,3-dihydrobenzimidazol-2-one], for which the IC50 was 251 nM.

In the case of `CC(C)(C)OC(=O)N1CC(Oc2cccc(Cl)c2-c2ccc3[nH]c(=O)[nH]c3c2)C1` [Example 100, tert-Butyl 3-[3-chloro-2-(2-oxo-1,3-dihydrobenzimidazol-5-yl)phenoxy]azetidine-1-carboxylate], the IC50 is 316 nM.

With `N#Cc1ccc(-c2cccc(Cl)c2-c2ccc3[nH]c(=O)[nH]c3c2)cc1` [Example 164, 4-[3-Chloro-2-(2-oxo-1,3-dihydrobenzimidazol-5-yl)phenyl]benzonitrile], the IC50 was 39.8 nM.

Consider `O=c1[nH]c2ccc(-c3cccc(OC(F)F)c3Cl)cc2[nH]1` [Example 113, 5-[2-Chloro-3-(difluoromethoxy)phenyl]-1,3-dihydrobenzimidazol-2-one], for which the IC50 is 79.4 nM.

On to `O=c1[nH]c2ccc(-c3cccc(OCC4CC4(F)F)c3Cl)cc2[nH]1` (racemic) [Example 111, (±)-5-[2-Chloro-3-[(2,2-difluorocyclopropyl)methoxy]phenyl]-1,3-dihydrobenzimidazol-2-one], for which the IC50 was 50.1 nM.

For `O=c1[nH]c2ccc(-c3c(Cl)cccc3-c3cncc(F)c3)cc2[nH]1` [Example 166, 5-[2-Chloro-6-(5-fluoro-3-pyridyl)phenyl]-1,3-dihydrobenzimidazol-2-one], the IC50 was 63.1 nM.

Regarding `N#Cc1ccc(OC(F)(F)F)c(-c2ccc3[nH]c(=O)[nH]c3c2)c1Cl` [Example 208, 2-Chloro-3-(2-oxo-1,3-dihydrobenzimidazol-5-yl)-4-(trifluoromethoxy)benzonitrile], the IC50 is 15.8 nM.

For `Cc1c(CN2CCOCC2C)cccc1-c1ccc2[nH]c(=O)[nH]c2c1` (stereo in doubt) [Example 153, (3S)-5-[2-Methyl-3-[[3-methylmorpholin-4-yl]methyl]phenyl]-1,3-dihydrobenzimidazol-2-one], the IC50 is 316 nM.

On to `N#CCc1cccc(C2CC2)c1-c1ccc2[nH]c(=O)[nH]c2c1` [Example 138, 2-[3-Cyclopropyl-2-(2-oxo-1,3-dihydrobenzimidazol-5-yl)phenyl]acetonitrile], for which the IC50 is 100 nM.

As to `Cc1c(CN2CCOCC2C)cccc1-c1ccc2[nH]c(=O)[nH]c2c1` (stereo in doubt) [Example 152, (3R)-5-[2-Methyl-3-[[3-methylmorpholin-4-yl]methyl]phenyl]-1,3-dihydrobenzimidazol-2-one], the IC50 was 1000 nM.

With `Cn1cc(-c2cccc(-c3ccc4[nH]c(=O)sc4c3)c2Cl)cn1` [Example 212, 6-(2-Chloro-3-(1-methyl-1H-pyrazol-4-yl)phenyl)benzo[d]thiazol-2(3H)-one], the IC50 was 200 nM.

For the compound `Cc1c(CN2CC(F)C2)cccc1-c1ccc2[nH]c(=O)[nH]c2c1` [Example 157, 5-[3-[(3-Fluoroazetidin-1-yl)methyl]-2-methyl-phenyl]-1,3-dihydrobenzimidazol-2-one], the IC50 was 6310 nM.

For `O=c1[nH]c2ccc(-c3c(Cl)ccc(CN4CCCCC4)c3Cl)cc2[nH]1` [Example 140, 5-[2,6-Dichloro-3-(1-piperidylmethyl)phenyl]-1,3-dihydrobenzimidazol-2-one], the IC50 is 398 nM.

With `O=c1[nH]c2ccc(-c3c(Cl)cccc3OC(F)F)cc2[nH]1` [Example 94, 5-[2-Chloro-6-(difluoromethoxy)phenyl]-1,3-dihydrobenzimidazol-2-one], the IC50 was 31.6 nM.

As to `Cn1cc(-c2cccc(-c3ccc4[nH]c(=O)[nH]c4c3)c2Cl)cn1` [Example 185, 5-[2-Chloro-3-(1-methylpyrazol-4-yl)phenyl]-1,3-dihydrobenzimidazol-2-one], the IC50 is 50.1 nM.

`Cc1ccc(Cl)cc1-c1ccc2[nH]c(=O)[nH]c2c1` [Example 10, 5-(5-Chloro-2-methyl-phenyl)-1,3-dihydrobenzimidazol-2-one]: the IC50 is 251 nM.

In the case of `O=c1[nH]c2ccc(-c3cccc(N4CCCCC4)c3Cl)cc2[nH]1` [Example 188, 5-[2-Chloro-3-(1-piperidyl)phenyl]-1,3-dihydrobenzimidazol-2-one], the IC50 is 12.6 nM.

For `Cc1cccc(-c2ccccc2F)c1-c1ccc2[nH]c(=O)[nH]c2c1` [Example 180, 5-[2-(2-Fluorophenyl)-6-methyl-phenyl]-1,3-dihydrobenzimidazol-2-one], the IC50 was 316 nM.

Consider `COc1cccc(OCC(F)(F)F)c1-c1ccc2[nH]c(=O)[nH]c2c1` [Example 103, 5-[2-Methoxy-6-(2,2,2-trifluoroethoxy)phenyl]-1,3-dihydrobenzimidazol-2-one], for which the IC50 is 398 nM.

On to `COc1cncc(-c2cccc(Cl)c2-c2ccc3[nH]c(=O)[nH]c3c2)c1` [Example 168, 5-[2-Chloro-6-(5-methoxy-3-pyridyl)phenyl]-1,3-dihydrobenzimidazol-2-one], for which the IC50 was 398 nM.

For `CC(C)Oc1cccc(F)c1-c1ccc2[nH]c(=O)[nH]c2c1` [Example 11, 5-(2-Fluoro-6-isopropoxy-phenyl)-1,3-dihydrobenzimidazol-2-one], the IC50 was 501 nM.

Consider `CC(C)n1nccc1-c1cccc(Cl)c1-c1ccc2[nH]c(=O)[nH]c2c1` [Example 175, 5-[2-Chloro-6-(2-isopropylpyrazol-3-yl)phenyl]-1,3-dihydrobenzimidazol-2-one], for which the IC50 was 1260 nM.

Take `O=c1[nH]c2ccc(-c3c(Cl)cccc3NCc3ccco3)cc2[nH]1` [Example 86, 5-[2-Chloro-6-(2-furylmethylamino)phenyl]-1,3-dihydrobenzimidazol-2-one]: the IC50 is 158 nM.

Turning to `O=c1[nH]c2ccc(-c3cccc(Cl)c3OC(F)(F)F)cc2[nH]1` [Example 29, 5-[3-Chloro-2-(trifluoromethoxy)phenyl]-1,3-dihydrobenzimidazol-2-one], the IC50 is 31.6 nM.

As to `O=c1[nH]c2ccc(-c3c(Cl)cccc3Oc3cncs3)cc2[nH]1` [Example 101, 5-(2-Chloro-6-thiazol-5-yloxy-phenyl)-1,3-dihydrobenzimidazol-2-one], the IC50 was 316 nM.

With `Cc1noc(C)c1-c1cccc(Cl)c1-c1ccc2[nH]c(=O)[nH]c2c1` [Example 174, 5-[2-Chloro-6-(3,5-dimethylisoxazol-4-yl)phenyl]-1,3-dihydrobenzimidazol-2-one], the IC50 was 794 nM.

As for `Cc1c(-c2ccc3[nH]c(=O)[nH]c3c2)cccc1-c1nc(C2CC2)no1` [Example 201, 5-(3-(3-cyclopropyl-1,2,4-oxadiazol-5-yl)-2-methylphenyl)-1H-benzo[d]imidazol-2(3H)-one], the IC50 is 10 nM.

With `O=c1[nH]c2ccc(-c3c(Cl)cncc3Cl)cc2s1` [Example 134, 6-(3,5-Dichloro-4-pyridyl)-3H-1,3-benzothiazol-2-one], the IC50 is 63.1 nM.

As for `Cc1nnc(-c2cccc(-c3ccc4[nH]c(=O)[nH]c4c3)c2Cl)o1` [Example 191, 5-[2-Chloro-3-(5-methyl-1,3,4-oxadiazol-2-yl)phenyl]-1,3-dihydrobenzimidazol-2-one], the IC50 is 2000 nM.

As for `Cc1c(-c2ccc3[nH]c(=O)sc3c2)cccc1-c1ncno1` [Example 200, 6-[2-Methyl-3-(1,2,4-oxadiazol-5-yl)phenyl]-3H-1,3-benzothiazol-2-one], the IC50 was 2510 nM.

Take `Cc1cc(-c2c(Cl)cccc2OC(F)(F)F)cc2[nH]c(=O)[nH]c12` [Example 211, 6-(2-Chloro-6-(trifluoromethoxy)phenyl)-4-methyl-1H-benzo[d]imidazol-2(3H)-one]: the IC50 is 0.1 nM.

As for `N#CC1(c2cccc(Cl)c2-c2ccc3[nH]c(=O)[nH]c3c2)CC1` [Example 128, 1-[3-Chloro-2-(2-oxo-1,3-dihydrobenzimidazol-5-yl)phenyl]cyclopropanecarbonitrile], the IC50 is 398 nM.

As to `O=c1[nH]c2ccc(-c3cccc(-c4nnco4)c3Br)cc2[nH]1` [Example 193, 5-[2-Bromo-3-(1,3,4-oxadiazol-2-yl)phenyl]-1,3-dihydrobenzimidazol-2-one], the IC50 is 251 nM.

For the compound `COc1ccc(-c2cccc(CC#N)c2-c2ccc3[nH]c(=O)[nH]c3c2)cc1` [Example 137, 2-[3-(4-Methoxyphenyl)-2-(2-oxo-1,3-dihydrobenzimidazol-5-yl)phenyl]acetonitrile], the IC50 is 316 nM.

As for `CC(C)(C#N)c1cccc(Cl)c1-c1ccc2[nH]c(=O)[nH]c2c1` [Example 127, 2-[3-Chloro-2-(2-oxo-1,3-dihydrobenzimidazol-5-yl)phenyl]-2-methyl-propanenitrile], the IC50 was 25.1 nM.

Turning to `Cc1cccc(F)c1-c1ccc2[nH]c(=O)[nH]c2c1` [Example 54, 5-(2-Fluoro-6-methyl-phenyl)-1,3-dihydrobenzimidazol-2-one], the IC50 was 251 nM.

(Values after US10611730B2, “Benzimidazolone and benzothiazolone compounds and their use as AMPA receptor modulators” (Janssen Pharmaceutica NV, priority 2015, dated 2020).)
